Test results from patent publication US8410309B2, “Phenoxy carboxylic acid compounds and compositions for delivering active agents” (Emisphere Technologies, Inc., priority 1999, dated 2013).
Where “and” joins values, the source holds several entries; their conditions need not be identical. Equal entries are not always repeated.

What was measured:
[1] = Insulin pulmonary delivery, serum insulin by ELISA, ratio to insulin-alone control; assay type: in vivo, Sprague-Dawley rats; details: rats
Method: Dosing compositions of delivery agent compound and human insulin in water were prepared. Typically, to 1.5 mg of delivery agent compound was added deionized water to bring the volume to 1.0 ml, and the solution was vortexed. […] The pH was adjusted to between about 7.0 to 8.5 with NaOH or HCl. […] The final delivery agent compound dose, insulin dose and volume dose amounts are listed below in Table 9.
The typical dosing and sampling protocols were as follows. […] A control group of five animals was dosed insulin alone. A tracheal instillator for rodents, equipped with light (available from Penn Century, Inc., Pittsburgh, Pa.) was filled with dosing solution and inserted down the throat until the needle went into the trachea (confirmed visually). The dosing solution was administered by pressing the plunger.
Blood samples from each animal were collected serially from the tail artery, typically at 5, 15, 30, 60 and 120 minutes after dosing. […] The ratio of the area under the curve (AUC) for the test group versus that of the control group is reported below. The ratio of the maximum serum insulin concentration (Cmax) for the test group versus that of the control group is also reported below.

[2] = Salmon calcitonin (sCT) oral delivery, serum sCT by EIA; details: rats, delivery agent compound dose 150 mg/kg, sCT dose 30 μg/kg
[3] = Low molecular weight heparin (LMWH) oral/intracolonic delivery, plasma LMWH by anti-Factor Xa assay; assay type: in vivo, Sprague-Dawley rats; details: IC, rats, LMWH 750 IU/kg, 1 ml/kg
Method: Oral dosing (PO) and/or intracolonic (IC) compositions containing a delivery agent compound and low molecular weight heparin (LMWH) were prepared in 25% aqueous propylene glycol. […] Typically, the delivery agent compound and LMWH (Parnaparin, 91 IU/mg average molecular weight about 5,000, available from Opocrin, Modena, Italy) (typically 90-105 IU/mg, average molecular weight about 5,000) were mixed by vortex as dry powders. This dry mixture was dissolved in 25% v/v aqueous propylene glycol, vortexed, and placed in a sonicator (37° C.) to produce a clear solution. The pH was adjusted to about 7 (6.5-8.5) with 2N aqueous NaOH. The dosing solution was sonicated to produce a clear solution. The final volume was adjusted to 3.0 ml.
(§1) The typical dosing and sampling protocols were as follows. […] The dosing solution was expressed slowly into the colon by pressing the syringe plunger.
Citrated blood samples were collected by cardiac puncture following the administration of ketamine (88 mg/kg), typically at 0.5, 1.0, 2.0, 3.0 and 4.0 hours after dosing. LMWH absorption was verified by an increase in plasma LMWH measured by the anti-Factor Xa assay CHROMOSTRATE™ Heparin anti-Xa assay (available from Organon Teknika Corporation, Durham, N.C.). […] The peak of these mean plasma LMWH concentrations is reported below in Table 5.

[4] = Interferon oral delivery, serum IFN by immunoassay; assay type: in vivo, Sprague-Dawley rats; details: rats, delivery agent compound 200 mg/kg, IFN 1 mg/kg, 1 ml/kg
Method: Dosing solutions of delivery agent compound and human interferon (IFN) were prepared in deionized water. […] This mixture was vortexed and placed in a sonicator (about 37° C.). The pH was adjusted to about 7.0 to 8.5 with aqueous NaOH. The mixture was vortexed to produce a uniform suspension or solution, also using sonication and heat if necessary.
(§2) The typical dosing and sampling protocols were as follows.
Serum IFN concentrations were quantified using Cytoscreen Immunoassay Kit for human IFN-alpha (catalog # KHC4012 from Biosource International, Camarillo, Calif.). Previous studies indicated baseline values of about zero.

[5] = Insulin oral delivery, serum human insulin by ELISA; details: rats
Method: Oral dosing (PO) compositions of delivery agent compound and human zinc insulin (minimum 26 IU/mg available from Calbiochem—Novabiochem Corp, La Jolla, Calif.) were prepared in deionized water. […] The pH was adjusted to about 7 to 8.5 with NaOH or HCl. […] The final delivery agent compound dose, insulin dose and dose volume amounts are listed below in Table 8.
as §2
Serum insulin levels were determined with an Insulin ELISA Test Kit (Kit # DSL-10-1600 from Diagnostic Systems Laboratories, Inc., Webster, Tex.), modifying the standard protocol in order to optimize the sensitivity and linear range of the standard curve for the volumes and concentrations of the samples used in the present protocol. […] The five values for each time point were averaged and the results plotted as serum insulin concentration versus time.

[6] = Heparin oral/intracolonic delivery, clotting time by activated partial thromboplastin time (APTT); assay type: in vivo, Sprague-Dawley rats; details: rats, baseline about 20 seconds
Method: Oral gavage (PO) and/or intracolonic (IC) dosing solutions containing a delivery agent compound and heparin sodium USP were prepared in 25% aqueous propylene glycol. […] This dry mixture was dissolved in 25% v/v aqueous propylene glycol, vortexed, and placed in a sonicator (about 37° C.). The pH was adjusted to about 7 (6.5 to 8.5) with aqueous NaOH (2N). The dosing solution was sonicated to produce a clear solution. The final volume was adjusted to about 3.0 ml.
as §1
Citrated blood samples were collected by cardiac puncture following the administration of ketamine (88 mg/kg), typically at 0.25, 0.5, 1.0 and 1.5 hours after dosing. Heparin absorption was verified by an increase in clotting time measured by the activated partial thromboplastin time (APTT) according to the method of Henry, J. B., Clinical Diagnosis and Management by Laboratory Methods, Philadelphia, Pa., W.B. Saunders (1979). Previous studies indicated baseline values of about 20 seconds.

[7] = Recombinant human growth hormone (rhGH) oral delivery, serum rhGH by immunoassay; details: oral gavage, rats, delivery agent compound 200 mg/kg, rhGH 3 mg/kg
Method: Oral gavage (PO) dosing solutions of delivery agent compound and rhGH in phosphate buffer were prepared by mixing. A solution of the delivery agent compound was made either with the sodium salt of the delivery agent compound or by converting the free acid to its sodium salt.
The typical dosing and sampling protocols were as follows. Male Sprague-Dawley rats weighing 200-250 g were fasted for 24 hours and administered ketamine (44 mg/kg) and chlorpromazine (1.5 mg/kg) 15 minutes prior to dosing and again as needed to maintain anesthesia. A dosing group of five animals was administered one of the dosing solutions. An 11 cm Rusch 8 French catheter was adapted to a 1 ml syringe with a pipette tip. The syringe was filled with dosing solution by drawing the solution through the catheter, which was then wiped dry. The catheter was placed down the esophagus leaving 1 cm of tubing past the incisors. The dosing solution was administered by pressing the syringe plunger.
Blood samples were collected serially from the tail artery typically at time=15, 30, 45, 60 and 90 minutes. The five samples from each time period were pooled (except for those samples for which standard deviation (SD) and standard error (SE) are reported). Serum rHGH concentrations were quantified by an rHGH immunoassay test kit (Kit # K1F4015 from Genzyme Corporation Inc., Cambridge, Mass.).

[8] = Table 9 pulmonary delivery, volume 1 ml/kg, delivery agent compound 3 mg/kg, insulin 100 mg/kg (so in the source)
[9] = delivery agent compound 25 mg/kg
[10] = delivery agent compound 100 mg/kg, insulin 3 mg/kg, 1 ml/kg
[11] = IC (intracolonic), delivery agent compound 50 mg/kg, heparin 25 mg/kg, volume dose 1 ml
[12] = delivery agent compound 200 mg/kg, insulin 0.5 mg/kg, 1 ml/kg
[13] = delivery agent compound 50 mg/kg
[14] = delivery agent compound 100 mg/kg, insulin 3 mg/kg, 0.5 ml/kg
[15] = pulmonary, volume 0.4 ml/kg, delivery agent compound 0.03 mg/kg, insulin 0.3 mg/kg (so in the source)

SMILES: CC(=O)c1ccccc1OCc1ccc(C(=O)O)cc1 [Compound 1]
- Cmax (serum insulin) [1, 8]: 74.237 μU/ml
- Mean Peak Serum sCT (pg/ml ± SD) (SE) ([2]; dose volume 1 (ml), 150 mg/kg): 317 ± 405 pg/mL and 398 ± 237 pg/mL and 410 ± 471 pg/mL
- Mean Peak Plasma LMWH Concentration ± SD [3, 9]: 1.022 ± 0.432 IU/ml
- Mean Peak Plasma LMWH Concentration ± SD ([3]; delivery agent compound 50 mg/kg, 50 mg/kg): 1.734 ± 0.192 IU/ml and 1.038 ± 0.338 IU/ml
- Mean Peak Serum [IFN] ± SD [4]: 17.357 ± 38 ng/mL
- Mean Peak Serum [INS] ± SD [5, 10]: 74.237 ± 1144.49 μU/ml
- Mean Peak APTT ± SD [6, 11]: 130.84 ± 118.18 s and 231.34 s

SMILES: O=C(O)CCCCCCOc1ccccc1O [Compound 6, (2-hydroxyphenyl)-7-oxyheptanoic acid]
- Mean Peak Plasma LMWH Concentration ± SD [3, 9]: 0.47 ± 0.17 IU/ml
- Mean Peak Serum [IFN] ± SD [4]: 0.5696 ± 0.8 ng/mL
- Mean Peak Serum [INS] ± SD [5, 12]: 129.5 ± 131.5 μU/ml
- Mean Peak APTT ± SD [6, 11]: 157.4 ± 33.7 s and 99.8 ± 50.6 s
- Mean Peak APTT ± SD ([6]; PO (oral gavage), delivery agent compound 300 mg/kg, heparin 100 mg/kg, volume dose 3 ml): 193 ± 61.2 s

SMILES: CC(=O)c1ccccc1OCCCCC(=O)O [Compound 10]
- Cmax (serum insulin) [1, 8]: 63.5884 μU/ml
- Mean Peak Serum [rhGH] ([7]; volume dose 1 ml): 34.3 ng/mL
- Mean Peak Plasma LMWH Concentration ± SD [3, 13]: 0.088 ± 0.121 IU/ml
- Mean Peak Serum [INS] ± SD [5, 10]: 63.5884 ± 129.23 μU/ml
- Mean Peak APTT ± SD [6, 11]: 81.8 ± 7 s and 63.5 s

SMILES: O=C(O)C=Cc1ccccc1OCCCCCCCC(=O)O [Compound 25]
- Cmax (serum insulin) [1, 8]: 47.2162 μU/ml
- Mean Peak Serum [rhGH] ([7]; volume dose 1 ml): 0 ng/mL
- Mean Peak Serum sCT (pg/ml ± SD) (SE) ([2]; dose volume 1 (ml)): 53 ± 77 pg/mL
- Mean Peak Serum [INS] ± SD [5, 10]: 47.2162 ± 31.43 μU/ml

SMILES: CCC(=O)c1ccccc1OCCCC(=O)O [Compound 26]
- Mean Peak Serum [rhGH] ([7]; volume dose 1 ml): 8.3 ng/mL
- Mean Peak Plasma LMWH Concentration ± SD [3, 13]: 0.262 ± 0.106 IU/ml
- Mean Peak Serum [INS] ± SD [5, 14]: 240.5 ± 528.29 μU/ml
- Mean Peak APTT ± SD [6, 11]: 76.7 s and 41.534 ± 25.56 s

SMILES: O=C(O)CCCCCCCOc1ccccc1C(=O)O [Compound 32]
- Mean Peak Serum [rhGH] ([7]; volume dose 1 ml): 0 ng/mL
- Mean Peak Serum sCT (pg/ml ± SD) (SE) ([2]; dose volume 1 (ml), 150 mg/kg): 175 ± 148 pg/mL and 103 ± 75 pg/mL and 187 ± 135 pg/mL
- Mean Peak Plasma LMWH Concentration ± SD [3, 13]: 0.07 ± 0.01 IU/ml
- Mean Peak Serum [IFN] ± SD [4]: 0 ng/mL
- Mean Peak Serum [INS] ± SD [5, 12]: 3.12 ± 2.26 μU/ml
- Mean Peak Serum [INS] ± SD ([5]; delivery agent compound 200 mg/kg, insulin 3 mg/kg, 1 ml/kg): 6.38 ± 4.42 μU/ml
- Mean Peak APTT ± SD [6, 11]: 26.5 ± 2.3 s

SMILES: O=C(O)CCCCCCCCCOc1cccc(O)c1 [Compound 44]
- Mean Ratio of AUC for insulin + compound versus AUC for insulin alone [1, 15]: 0.76
- Mean Peak Serum sCT (pg/ml ± SD) (SE) ([2]; dose volume 1 (ml)): 188 ± 184 pg/mL
- Mean Peak Serum [INS] ± SD [5, 14]: 97.49 ± 134.1 μU/ml

SMILES: O=C(O)CCCCCOc1cccc(O)c1 [Compound 45]
- Mean Ratio of AUC for insulin + compound versus AUC for insulin alone [1, 15]: 1.01
- Mean Peak Serum sCT (pg/ml ± SD) (SE) ([2]; dose volume 1 (ml), 150 mg/kg): 125 ± 187 pg/mL and 172 ± 158 pg/mL
- Mean Peak Serum [INS] ± SD [5, 12]: 70.32 ± 149.1 μU/ml

SMILES: O=C(O)CCCCCCCCCOc1ccc(O)cc1 [Compound 48]
- Cmax (serum insulin) [1, 15]: 135.56 ± 80.96 μU/ml
- Mean Ratio of AUC for insulin + compound versus AUC for insulin alone [1, 15]: 1.30
- Mean Peak Serum sCT (pg/ml ± SD) (SE) ([2]; dose volume 3 (ml)): 95 ± 156 pg/mL
- Mean Peak Serum sCT (pg/ml ± SD) (SE) ([2]; dose volume 4 (ml)): 35 ± 49 pg/mL

SMILES: O=C(O)CCCCCOc1ccc(O)cc1 [Compound 49]
- Mean Ratio of AUC for insulin + compound versus AUC for insulin alone [1, 15]: 0.54
- Mean Peak Serum [INS] ± SD [5, 14]: 335.7 ± 227.05 μU/ml

SMILES: CCC(=O)c1ccc(OCCCCCCCC(=O)O)cc1 [Compound 63]
- Cmax (serum insulin) [1, 8]: 7.843 μU/ml
- Mean Peak Serum [INS] ± SD [5, 10]: 7.843 ± 8.527 μU/ml

SMILES: O=C(O)c1ccc(COc2ccc(O)cc2)cc1 [Compound 67]
- Cmax (serum insulin) ([1]; pulmonary, volume 0.4 ml/kg, delivery agent compound 0.03 mg/kg, insulin 0.06 mg/kg (so in the source)): 82.23 ± 47.16 μU/ml and 70.85 ± 36.24 μU/ml
- Cmax (serum insulin) ([1]; pulmonary, volume 0.4 ml/kg, delivery agent compound 0.03 mg/kg, insulin 0.15 mg/kg (so in the source)): 84.40 ± 15.06 μU/ml and 91.20 ± 37.30 μU/ml
- Cmax (serum insulin) [1, 15]: 66.04 ± 47.42 μU/ml and 92.14 ± 36.17 μU/ml and 115.04 ± 68.23 μU/ml
- Mean Peak Serum [rhGH] ([7]; volume dose 1 ml): 15 ng/mL and 14.7 ng/mL
- Mean Peak Serum sCT (pg/ml ± SD) (SE) ([2]; dose volume 1 (ml), 150 mg/kg): 142 ± 142 pg/mL and 256 ± 158 pg/mL
- Mean Peak Serum sCT (pg/ml ± SD) (SE) ([2]; dose volume 2 (ml)): 681 ± 419 pg/mL
- Mean Peak Serum [IFN] ± SD [4]: 3.4451 ± 4.5 ng/mL

SMILES: O=C(O)CCCCCCCOc1ccc(F)cc1F [Compound 71]
- Cmax (serum insulin) [1, 15]: 57.82 ± 35.28 μU/ml
- Mean Peak Serum [rhGH] ([7]; volume dose 3 ml): 5.94 ng/mL
- Mean Peak Serum sCT (pg/ml ± SD) (SE) ([2]; dose volume 2 (ml)): 302 ± 246 pg/mL

SMILES: O=C(O)c1ccc(COc2ccccc2Cl)cc1 [Compound 78]
- Cmax (serum insulin) [1, 15]: 80.56 ± 30.51 μU/ml
- Mean Peak Serum [rhGH] ([7]; volume dose 1 ml): 0 ng/mL
